The test system of data set [1] is A549 cells. In words: Cytotoxicity assay (MTS) with or without light. The class given is cell-based, human. Conditions: upon light treatment (630 nm, 3 min). The protocol: Cytotoxicity assay. Cell viabilities were determined by MTS method according to manufactory manual (Promega, Madison, Wis.). A549 cells were seeded in 96-wells plates with a density of 5000 cells per well. […] Six hours later, medium was replaced with fresh complete media followed by illumination with 630 nm light for 3 minutes. After additional 24 hours incubation, MTS working solution was added and the absorbance at 490 nm was evaluated by SpectraMax M3 microplate reader. Experiments were performed in triplicate, and 3 independent experiments were conducted.

The test system of data set [2] is U87-MG tumour cells. In words: Cell viability (MTS) with or without laser. It counts as cell-based. Here is the method:
Cell viabilities evaluation. U87-MG cells were purchased from the American Type Culture Collection (ATCC, Manassas, Va., USA). Cells were cultured in RPMI 1640 Medium supplemented with 10% fetal bovine serum, 100 U/mL penicillin G, and […] streptomycin in a humidified 37° C. with 5% CO2. Cell viabilities were determined by MTS method. U87-MG cells were seeded in 96-well plates with a density of 5000 cells per well. The cells were incubated overnight until fully attached. The cells were treated with different concentrations of Pa, Ir, Pa and Ir mixture and PIN. 12 h later, the extracellular materials were washed off with PBS and replaced with fresh culture media. Laser treated group were exposed under a laser source of Omnilux New-U device (630 nm) for 3 min, and further incubated with non-laser treated cells for another 24 h. MTS was added to each well and further incubated for 2 h. The UV-vis absorbance at 495 nm with a reference wavelength of 630 nm was detected using a micro-plate reader using an SpectraMax M3 Multi-Mode Microplate Readers (Molecular Devices, LLC., CA, USA). Untreated cells in medium were used as controls. […]. Results were shown as the average cell viability [(ODtreat−ODblank)/(ODcontrol−ODblank)*100%] of triplicate wells.

In data set [3] the test system is A549 human lung cancer cells. In words: Cell uptake and intracellular ROS production. Conditions: upon laser/light illumination. The class given is cell-based. Here is the method: Cell uptake and intracellular ROS production. […] After three times of washes with PBS, cells were incubated with 50 μM DCF-DA for 30 minutes. Samples were treated with or without light (630 nm, Omnilux New-U LED panel) for 1 minute, and intracellular […] (based on Pa fluorescence) and ROS production were analyzed by flow cytometry ([…], BD Bioscience, SD, CA).

Data set [4] has as its system OSC-3 cells. The data set is described as follows: Cell viability with or without laser.
Description: The synergistic effect of the chemotherapy and phototherapy of pPhD NPs was evaluated. OSC-3 cells were incubated with different concentrations of free photosensitizer (Phy), free chemotherapeutic drug (DOX) and pPhD NPs, respectively, then treated with or without laser (FIG. 11i).
A short description of data set [5]: Systemic toxicity of pPhD NPs (body weight, H&E). The class given is in vivo. The protocol:
Tumor volume and body weight measurements. The body weights and tumor sizes were monitored three times a week, and the tumor volume was calculated by the following formula: Tumor volume=Length×(Width/2)^2.
H&E evaluation. All laser-treated tumors were collected and stained with hematoxylin and eosin (H&E) to evaluate the effect of phototherapy. The main organs of each group, including heart, liver, spleen, lung, kidney, small intestine, were collected for H&E assay to evaluate the toxicity of the materials.

Broadly, the IC50 is the midpoint of a concentration-inhibition curve. Read a high IC50 as weaker potency. For the compound pheophorbide A [Pa], the IC50 is 7 µM in data set [1] and about 50 µM in data set [2] (with laser treatment (630 nm, 3 min)). Moreover, the cytotoxicity entry in data set [2] (without laser) is recorded as “no obvious cytotoxicity”.

For `CCc1c2c(nc3ccc(OC(=O)N4CCC(N5CCCCC5)CC4)cc13)-c1cc3c(c(=O)n1C2)COC(=O)[C@]3(O)CC` [Ir, irinotecan], the “intracellular ROS production” value in data set [3] was “did not produce intracellular ROS”.

As for `COc1cccc2c1C(=O)c1c(O)c3c(c(O)c1C2=O)C[C@@](O)(C(=O)CO)C[C@@H]3O[C@H]1C[C@H](N)[C@H](O)[C@H](C)O1` [DOX, doxorubicin], the cytotoxicity result in data set [4] is “notable anti-tumor efficacy”. For the same compound, in data set [5] (during treatment), the “body weight changes / systemic toxicity” value is listed as “obvious body weights loss”. Also, the “lesion of major organs (H&E)” value in data set [5] (mouse, in vivo) is “obvious liver and heart toxicity”.

In the case of pheophorbide a-hydrazide [Phy], the cytotoxicity result in data set [4] is given as “no obvious cytotoxicity”.

For the origin of these results see US11559585B2, “Conjugates of active pharmaceutical ingredients” (priority 2017, dated 2023).
